pIC50: −log10 of the molar value.
Columns and labels:
[1] = target: RNA-directed RNA polymerase (Hepacivirus hominis, UniProt O39930); assay: Inhibitory concentration against Hepatitis C virus-RNA-dependent RNA polymerase
[2] = target: Human immunodeficiency virus type 1 reverse transcriptase (Human immunodeficiency virus 1, UniProt Q72547); assay: Inhibitory concentration against HIV-Reverse transcriptase

Chain of RNA-directed RNA polymerase (O39930 whole entry): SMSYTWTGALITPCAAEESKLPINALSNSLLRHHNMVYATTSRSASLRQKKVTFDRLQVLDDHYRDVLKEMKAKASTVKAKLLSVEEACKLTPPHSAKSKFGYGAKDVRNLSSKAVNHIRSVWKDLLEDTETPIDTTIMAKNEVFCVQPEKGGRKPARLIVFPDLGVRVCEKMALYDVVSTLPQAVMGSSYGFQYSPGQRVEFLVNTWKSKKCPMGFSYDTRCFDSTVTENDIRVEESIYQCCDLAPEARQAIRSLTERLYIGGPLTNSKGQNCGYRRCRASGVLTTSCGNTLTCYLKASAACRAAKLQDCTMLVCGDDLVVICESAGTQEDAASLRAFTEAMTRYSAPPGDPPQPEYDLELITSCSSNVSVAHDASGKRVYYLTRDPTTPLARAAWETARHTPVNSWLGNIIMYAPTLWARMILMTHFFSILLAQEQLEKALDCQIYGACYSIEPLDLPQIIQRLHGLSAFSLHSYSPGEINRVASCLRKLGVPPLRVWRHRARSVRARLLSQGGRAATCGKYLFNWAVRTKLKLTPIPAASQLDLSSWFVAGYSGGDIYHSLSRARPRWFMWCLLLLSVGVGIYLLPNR

pIC50 [1] | pIC50 [2] | Structure (SMILES)
7.00 |  | CCCCn1c(=O)c(C2=NS(=O)(=O)c3ccccc3N2)c(O)c2ccccc21
6.51 | 5.85 | C[N+]1(C)C[C@]23c4c5c6c7c8c9c%10c%11c%12c%13c%14c%15c%16c%17c%18c%19c%20c(c2c2c4c4c6c6c8c%10c8c%12c%10c%14c(c%15%19)c%12c%20c2c2c4c6c8c%10c%122)[C@@H]%18[C@H]2c4c6c8c%10c(c4-%17)[C@@H]%16[C@H]%13[C@@]%114C[N+](C)(C)C[C@]%104C=9[C@H]8[C@@H]7C5=C6[C@]23C1
5.49 | 5.92 | O=C(O)C1(C(=O)O)[C@]23c4c5c6c7c8c9c%10c%11c%12c%13c%14c%15c%16c%17c%18c%19c%20c(c2c2c4c4c6c6c8c%10c8c%12c%10c%14c(c%15%19)c%12c%20c2c2c4c6c8c%10c%122)[C@@H]%18[C@H]2c4c6c8c%10c(c4-%17)[C@@H]%16[C@H]%13[C@@]%114C(C(=O)O)(C(=O)O)[C@]%104C=9[C@H]8[C@@H]7C5=C6[C@@]213
< 5.00 | 6.00 | O=C(O)CN1C[C@@]23C4=C5c6c7c8c9c(c%10c%11c%12c%13c%14c%15c%16c%17c%18c%19c%20c%21c%22c%23c(c6c6c8c8c%24c9c%11c9c(c%16%12)c%17c%11c%19c%12c%21c%23c6c8c%12c%11c9%24)[C@@H]5[C@@H]5C=%22[C@H]6c8c(c-%14c(c4c85)[C@@H]2[C@H]%13%10)[C@H]%15[C@@H]%18[C@@H]%206)[C@]73[C@@H]1C(=O)O
5.85 | 5.89 | CCCCCCCCCC[N@+]1(C)C[C@@]23c4c5c6c7c8c9c%10c%11c%12c%13c%14c%15c%16c%17c%18c%19c%20c%21c(c2c2c4c4c6c9c6c4c4c2c%21c2c%19c(c%18%14)c9c%13c%10c6c9c24)C2=C4c6c(c-%16c9c%10c6[C@H]([C@@H]5C7=C%10[C@]5(C[N+](C)(C)C[C@]8%115)[C@H]9[C@H]%15%12)[C@@]43C1)[C@@H]%17[C@H]2%20
6.51 | 5.77 | C[N+]1(C)C[C@]23c4c5c6c7c8c9c%10c%11c%12c%13c%14c%15c%16c%17c%18c%19c%20c%21c(c2c2c4c4c6c9c6c4c4c2c%21c2c(c%16%20)c%15c9c%13c%10c6c9c24)[C@@H]%19[C@H]2c4c6c9c%10c(c4-%18)[C@@H]%17[C@@H]%14C%12=C%10[C@]4(C[N+](C)(C)C[C@@]8%114)[C@H]9[C@@H]7C5=C6[C@]23C1
6.62 | 5.80 | C[N+]1(C)C[C@@]23C4=C5C6=C7c8c9c%10c%11c%12c%13c%14c%15c%16c%17c%18c%19c%20c%21c%22c%23c%24c%25c%26c%27c(c(c8c8c%10c%13c(c%278)c8c%14c%17c(c%24c%22%18)c%268)[C@@]72C1)[C@H]%25[C@@H]3C=%23[C@@H]4[C@H]%21c1c5c2c3c(c1-%20)[C@H]([C@H]%19%16)[C@@]1(C[N+](C)(C)C[C@]%12%151)C3=C%11[C@H]9[C@H]62

From ChEMBL document CHEMBL1144363, “Human immunodeficiency virus-reverse transcriptase inhibition and hepatitis C virus RNA-dependent RNA polymerase inhibition activities of fullerene derivatives” (Bioorg Med Chem Lett, 2005)
